These results are taken from PMC10065799, “High-throughput profiling of sequence recognition by tyrosine kinases and SH2 domains using bacterial peptide display” (eLife, 2023).

Test in all cases: pTyr-Var library bacterial peptide display kinase screen (enrichment scores)
Assay [1] addresses c-Src kinase domain (Homo sapiens, UniProt P12931). It counts as biochemical. Conditions: sheet "Src".
In assay [2] the test system is EPHB1 kinase domain. It counts as biochemical, human. Conditions: for Screen: sheet EPHB1, effect of the variant peptide relative to its reference peptide in the pTyr-Var library screen (enrichment scores); for Screen (variant relative to reference peptide, measured in the pTyr-Var library screen): sheet "EPHB1", variant seq vs reference seq, bacterial peptide display enrichment.

In assay [3] the test system is EPHB2 kinase domain. It counts as biochemical, human. Conditions: sheet EPHB2.
Assay [4] addresses T1, c-Abl kinase domain (Mus musculus, UniProt P00520).
T1 sequence (P00520 242-493 limits assumed): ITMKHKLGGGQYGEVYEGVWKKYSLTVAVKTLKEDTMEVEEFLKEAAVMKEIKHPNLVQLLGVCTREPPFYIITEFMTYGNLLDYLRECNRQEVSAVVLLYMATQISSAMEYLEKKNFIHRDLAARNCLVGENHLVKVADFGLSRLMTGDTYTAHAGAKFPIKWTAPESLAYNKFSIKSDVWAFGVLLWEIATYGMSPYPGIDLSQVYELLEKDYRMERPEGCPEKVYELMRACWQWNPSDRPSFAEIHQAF
It is filed as biochemical.

For assay [5], the system named is Fer kinase domain. It counts as biochemical, mouse. Conditions: sheet "Fer".
Setting [6] is: effect of the variant peptide relative to its reference peptide in the pTyr-Var library screen.
The mark [7] stands for this setting: effect of the variant relative to its reference peptide in the pTyr-Var library screen.
[8] abbreviates: sheet "Abl", effect of variant peptide relative to its reference peptide in pTyr-Var library screen (enrichment).
The mark [9] stands for this setting: variant peptide versus its reference peptide in the pTyr-Var library screen.
Setting [10] is: variant peptide relative to its reference peptide, pTyr-Var library screen enrichment.
[11] abbreviates: value of the variant peptide against its reference peptide in the pTyr-Var library screen with Fer.
Setting [12] is: effect of variant peptide relative to its reference peptide in the pTyr-Var library screen (enrichment scores).
Setting [13] is: fig5-data2, sheet "Abl", Screen for the variant/reference peptide pair, pTyr-Var library.

Take ANAFIYDVQLP [L1CAM_Y420_V421D_YF]: the figures for the Screen in assay [1] (setting [6]) and in assay [2] were 2.894 and 1.352, respectively.
As for DASENYFVMDS [TMEM240_Y77_T80M], in assay [3] (setting [7]), the Screen is 2.274. In addition, the “Screen (variant relative to reference peptide, measured in the pTyr-Var library screen)” value in assay [2] is given as 2.244.
As for DNEAIYDICRC [TUBA4A_Y210_R215C], the Screen in assay [3] (setting [7]) is -0.1529; in assay [4] (setting [8]) it was -0.2438; in assay [1] (setting [9]) it was 0.192; in assay [5] (setting [10]), -0.3932. In assay [2], the “Screen (variant relative to reference peptide, measured in the pTyr-Var library screen)” value is on record as -1.159.
Take DSFATYFRWVL [H2BW1_Y84_R87W]: the Screen in assay [1] (setting [6]) is 2.683; in assay [2] it was 1.664; in assay [5] (setting [11]), 2.515.
On to DSNLIYSQIWS [FCRL3_Y662_P660L], for which the Screen in assay [3] (setting [12]) was -0.3687; in assay [1] (setting [6]) it was -0.2629; in assay [2], -0.4048; in assay [5] (setting [11]), -0.3219.
As for EAVSIYQFFGQ [CBLC_Y402_H405Y_YF], the Screen is recorded as 1.796 in assay [3] (setting [12]), -0.1267 in assay [1] (setting [6]), 2.283 in assay [2] and -0.2521 in assay [5] (setting [11]).
As to FADGVYLALEE [DUOX2_Y70_Q71L_YF], the Screen is -0.6876 in assay [3] (setting [12]), -0.6157 in assay [1] (setting [6]) and -0.7119 in assay [2].
Regarding FAELMYTGFWH [ASS1_Y322_V321M], the Screen in assay [3] (setting [12]) was 0.8429; in assay [1] (setting [6]), -0.1313; in assay [2], 0.6121; in assay [5] (setting [11]) it was -0.4066.
Regarding FEKFLYFLPAS [DYNC2H1_Y346_H341Y_YF], the Screen in assay [2] is -0.7762.
As for FFPANYVAPMT [GRAP2_Y324_L319F], the values for the Screen in assay [3] (setting [12]) and in assay [2] were 0.7095 and 0.4698, respectively.
For FVFSFYHAFSG [ACTN4_Y265_S262F_YF], the values for the Screen in assay [1] (setting [6]) and in assay [2] were -2.513 and -0.8684, respectively.
For the sequence GADAIYDHVNE [UQCR10_Y44_I47V], the Screen is 0.825 in assay [3] (setting [7]), -0.3881 in assay [1] (setting [9]) and 0.2964 in assay [5] (setting [10]).
GESKDYALHAG [SVIL_Y185_V189A]: the “Screen (variant relative to reference peptide, measured in the pTyr-Var library screen)” value in assay [2] is listed as -2.109.
As for GNLLIYTDFGK [HGD_Y166_E168D], the Screen in assay [1] (setting [6]) is -0.3604; in assay [2] it was 0.7596.
For HGEAFYSEVKA [PAK5_Y182_P187A_YF], the Screen in assay [1] (setting [9]) is 0.7945; in assay [2] it was -0.6457; in assay [5] (setting [11]), -0.1663.
For HRGHLYLAIEF [TEK_Y899_Y897H_YF], in assay [1] (setting [9]), the Screen came out at 2.155. Also, the “Screen (variant relative to reference peptide, measured in the pTyr-Var library screen)” value in assay [2] is on record as 0.9917.
For the sequence HVKHNYECLVF [XRCC5_Y416_I412V_YF], in assay [2], the “Screen (variant relative to reference peptide, measured in the pTyr-Var library screen)” value was -0.4743.
ITNLLYHVVSW [GBA_Y412_G416S]: the Screen in assay [3] (setting [12]) was 0.7379; in assay [1] (setting [6]) it was -0.28; in assay [2], 0.5526.
KKFPDYIQSAM [SGMS2_Y59_I62S_YF]: the “Screen (variant relative to reference peptide, measured in the pTyr-Var library screen)” value in assay [2] is on record as -3.574.
With LADKPYTFEFF [FXN_Y118_D122Y_YF], the Screen was -0.8967 in assay [3] (setting [12]), -0.4395 in assay [1] (setting [6]) and -0.3661 in assay [5] (setting [11]).
LASLIYNFILF [AQP6_Y231_V234I]: the Screen in assay [3] (setting [12]) was -1.512; in assay [1] (setting [6]), 0.7887; in assay [2] it was 0.3462; in assay [5] (setting [11]) it was 0.3008.
Regarding LENSTYQFICV [CRB1_Y760_R764C_YF], the Screen in assay [3] (setting [12]) is reported as 0.2665; in assay [4] (setting [13]), 0.05369; in assay [1] (setting [6]), -1.066; in assay [2], -0.5365; in assay [5] (setting [11]) it was -1.109.
For the sequence LGQRIYQFIRS [DYRK1B_Y271_Q275R_YF], the Screen in assay [3] (setting [12]) is -1.048; in assay [1] (setting [6]), -0.5682; in assay [2] it was -0.4041; in assay [5] (setting [11]), -0.8955.
The corresponding values for LIFVSYDDWDF [GRIN2A_Y281_S278F_YF] are 1.496, 0.7047, 0.6915 and -0.259.
LLDGEYFTLQI [TP53_Y327_P322L]: the figures for the Screen in assay [1] (setting [9]) and in assay [5] (setting [10]) were 0.8932 and 0.2479, respectively. Besides, in assay [2], the “Screen (variant relative to reference peptide, measured in the pTyr-Var library screen)” value came out at 0.245.
With LPEENYQVLCF [ARHGAP1_Y365_R369C], the Screen came to 1.989 in assay [3] (setting [12]), 2.107 in assay [1] (setting [6]), 1.32 in assay [2] and 1.701 in assay [5] (setting [11]).
As for LRWREYQRQDF [PRKRIP1_Y90_R87W_YF], the Screen is on record as 1.877 in assay [3] (setting [12]), 1.62 in assay [1] (setting [9]), 1.398 in assay [2] and 1.318 in assay [5] (setting [11]).
LTERDYSFVTT [ACTG2_Y199_G198D]: the Screen is 1.327 in assay [3] (setting [12]), 1.497 in assay [2] and 1.738 in assay [5] (setting [11]).
MSRNLYSGDCF [DDR2_Y736_Y740C_YF]: the Screen in assay [3] (setting [12]) is -2.168; in assay [1] (setting [6]), -1.107; in assay [2] it was -1.85; in assay [5] (setting [11]) it was -0.7796.
As for NEKNIYGVPLM [BMPR2_Y247_R248G], the results for the Screen in assay [3] (setting [12]), in assay [1] (setting [6]) and in assay [5] (setting [11]) were 2.247, 1.983 and 2.844, respectively.
On to NIEPIYLNMLL [ATR_Y317_V316I], for which the Screen turned out to be 1.556 in assay [3] (setting [12]), 0.03812 in assay [1] (setting [6]), 0.9992 in assay [2] and 0.3194 in assay [5] (setting [11]).
Consider NPIGLYSAEIL [LDB3_Y202_T206I], for which the Screen came out at 0.5797 in assay [3] (setting [12]), 0.7886 in assay [2] and 1.652 in assay [5] (setting [11]).
NREGVYRVFAP [TGFBI_Y537_T538R]: the Screen in assay [3] (setting [7]) is recorded as -2.433; in assay [1] (setting [9]), -0.9266; in assay [5] (setting [10]), -4.485. Besides, the “Screen (variant relative to reference peptide, measured in the pTyr-Var library screen)” value in assay [2] is on record as -2.691.
As to NTILLYHIMAW [GPR143_Y157_S152N], the Screen in assay [3] (setting [12]) is 0.3631; in assay [4] (setting [13]) it was 0.6057; in assay [2], 0.2317.
For PEPHIYAVADV [MYO9A_Y216_L211P], the figures for the Screen in assay [3] (setting [12]), in assay [1] (setting [9]) and in assay [5] (setting [11]) were 0.8276, 0.7992 and 0.8588, respectively.
As to PIFLFYLMDLS [ITGB2_Y131_D128Y_YF], the Screen in assay [1] (setting [6]) is -0.3916; in assay [2] it was 1.841.
For the sequence PKSLFYLLLKP [TRPC6_Y775_L780P], the figures for the Screen in assay [3] (setting [7]), in assay [1] (setting [9]) and in assay [5] (setting [10]) were -1.737, -1.15 and -0.7977, respectively.
For PTKNDYWAMPA [WWOX_Y287_L291P], the Screen in assay [3] (setting [7]) is 3.139; in assay [4] (setting [8]), -1.562. For the same sequence, in assay [2], the “Screen (variant relative to reference peptide, measured in the pTyr-Var library screen)” value came to 3.488.
Turning to QNTGDYCDLFG [PTPN11_Y62_Y63C_YF], the Screen in assay [3] (setting [12]) is -1.274; in assay [1] (setting [9]), -0.9656; in assay [2] it was -1.22.
Turning to RAILLYEFVGK [NATD1_Y45_V42I_YF], the Screen in assay [3] (setting [12]) is given as 1.274; in assay [1] (setting [9]), 1.103; in assay [2] it was 1.082; in assay [5] (setting [11]) it was 1.125.
As for RGDCMYASLLG [AR_Y269_P271S], the Screen is listed as -2.657 in assay [3] (setting [12]), 0.07196 in assay [1] (setting [6]), -1.7 in assay [2] and -2.075 in assay [5] (setting [11]).
For RKVLVYDKLNV [ROR2_Y624_N620K], the Screen is recorded as -1.435 in assay [3] (setting [12]), -1.144 in assay [1] (setting [9]), -0.6022 in assay [2] and -1.726 in assay [5] (setting [10]).
On to RRIFSYRGHLW [VHL_Y112_H110Y_YF], for which the Screen in assay [4] (setting [8]) is reported as -4.34; in assay [1] (setting [9]), -2.013. Further, the “Screen (variant relative to reference peptide, measured in the pTyr-Var library screen)” value in assay [2] is on record as -1.652.
For SCPANYFAFKI [FAM3D_Y65_P60S], the Screen in assay [3] (setting [12]) is on record as -0.7683; in assay [1] (setting [6]), -0.7557; in assay [2], -0.6297.
For SPPILYSFFLN [FCRL6_Y239_D244N_YF], the Screen was found to be 0.2765 in assay [3] (setting [12]), 0.0865 in assay [1] (setting [6]), 0.08597 in assay [2] and 1.473 in assay [5] (setting [11]).
Consider SSWPDYVRPLP [HSPB1_Y54_G53D], for which the Screen in assay [2] came to 1.698.
